{"source": "patent US6946452B2", "about": "“Use of N-acetyl-D-glucosamine in the manufacture of pharmaceutical useful for treating motion sickness” (Third Military Medical University Chinese People's …, priority 2001, dated 2005)", "key": {"[1]": {"system": "Proteus Mirabilis", "experiment": "Promoting wave test (bacterial bio-wave growth model)", "assay_type": "cell-based", "settings": "final concentration of 0.5% on LB plate, 37° C., compared with control", "excerpt": "I. Promoting Wave Test of N-acetyl-D-glucosamine\n1. Experimental Materials and Method:\n1.1 Samples: Pure Compound of Formula (I)\n1.2 Experimental Materials: • Strain: Proteus Mirabilis (which should comply with the following biological reaction characteristics: dynamics (+), urease (+), lactose (−), glucose (+), H2S (−), phenylalanine deaminase (+). • Culture medium: modified LB culture medium (the components of the composition are: trytones of 1%, yeast extract of 0.5%, sodium chloride 1%, glucose of 0.1%, TTC of 0.002% and pH=7.2˜7.4).\n2. Experimental Results and Evaluation: • The experiment adopts a bio-wave model which is used to research the promoting wave function of N-acetyl-D-glucosamine. […] II. Toxicological Test of the Compound of Formula (I), including: […]"}, "[2]": {"system": "motion sickness", "experiment": "Observation of curative efficiency in patients suffering from motion sickness", "assay_type": "in vivo", "settings": "for Not effective (number of persons) / Effective (number of persons): 20 persons; for Effective (number of persons): 100 km by car and by small steamboat", "experimental": "80 patients suffering from motion sickness were selected and randomly divided into four groups: a group to whom N-acetyl-D-glucosamine was administered in a long term (800 mg of NAG/person/day), a group to whom N-acetyl-D-glucosamine was administered in a short term (6000 mg of NAG/person/day), placebo group (6000 mg of glucose/person/day), a group to whom no medicament was administered. A double blind method was adopted, observing the curative efficiency for traveling 100 kilometers by car (its velocity was 20 kilometers/hour) and traveling 100 kilometers by a small steamboat. Compared with the situation before traveling by car, the following symptoms being relieved or removed will be judged to be effective: dizziness, nausea and vomiting."}, "[3]": {"settings": "in vivo", "excerpt": "1. acute toxicity test: including tests of administrating medicine by oral, Intravenous injection and maximum limit amount for administration;\nIII. Observation of Curative Efficiency."}, "[4]": {"settings": "in vivo", "remark": "listed apart in the source"}, "[5]": {"settings": "long term group, 800 mg of NAG/person/day"}, "[6]": {"settings": "short term group, 6000 mg of NAG/person/day"}}, "data": [{"smiles": "CC(=O)N[C@H]1C(O)O[C@H](CO)[C@@H](O)[C@@H]1O", "note": "(stereo partly drawn) [N-acetyl-D-glucosamine]", "values": [{"measurement": "promoting wave function (concentric ring pattern on LB plate)", "setting": "[1]", "value": "many fine waves on each ring emerged"}, {"measurement": "Not effective (number of persons)", "setting": "[2]; [5]", "value": 2}, {"measurement": "Effective (number of persons)", "setting": "[2]; [5]", "value": 18}, {"measurement": "effectivity of preventing and treating motion sickness", "setting": "[2]; p<0.05 vs placebo group and no-administration group", "value": "more than 90%"}, {"measurement": "Not effective (number of persons)", "setting": "[2]; [6]", "value": 1}, {"measurement": "Effective (number of persons)", "setting": "[2]; [6]", "value": 19}, {"measurement": "dosage at which acute toxicosis reaction had not appeared", "setting": "[3]", "value": "more than 2 g/kg"}, {"measurement": "maximum dosage with no toxicosis reaction", "setting": "[4]", "value": 1, "unit": "g/kg"}]}]}
